The record followed here is US6559101B2, “N- (5, 7-dimethoxy [1, 2, 4] triazolo [1, 5-a] pyrimidin-2-yl) arylsulfonamide compounds and their use as herbicides” (Dow AgroSciences LLC, priority 2000, dated 2003).

Holding throughout (assay type): in vivo
The test system of assay [1] is giant foxtail (Setaria faberi). Put plainly: Postemergence herbicidal activity. The conditions noted are these: scored after 2 weeks, 0 no injury, 100 complete kill. The procedure: (§1) Seeds of the desired test plant species were planted in Grace-Sierra MetroMix® 306 planting mixture, which typically has a pH of 6.0 to 6.8 and an organic matter content of about 30 percent, in plastic pots with a surface area of 64 square centimeters. When required to ensure good germination and healthy plants, a fungicide treatment and/or other chemical or physical treatment was applied. The plants were grown for 7-21 days in a greenhouse with an approximately 15 hr photoperiod which was maintained at about 23-29° C. during the day and 22-28° C. during the night. Nutrients and water were added on a regular basis and supplemental lighting was provided with overhead metal halide 1000 Watt lamps as necessary. The plants were employed for testing when they reached the first or second true leaf stage. A weighed amount of each test compound, determined by the highest rate to be tested, was placed in a 20 mL glass vial and was dissolved in 4 mL of a 97:3 v/v (volume/volume) mixture of acetone and dimethyl sulfoxide to obtain concentrated stock solutions. […] The concentrated stock solutions obtained were diluted with an aqueous mixture containing acetone, water, iso-propyl alcohol, dimethyl sulfoxide, Atplus 411F crop oil concentrate, and Triton X-155 surfactant (methylenebisdiamyl phenoxy polyethoxy ethanol) in a 48.5:39:10:1.5:1.0:0.02 v/v ratio to obtain spray solutions of known concentration. The solutions containing the highest concentration to be tested were prepared by diluting 2 mL aliquots of the stock solution with 13 mL of the mixture and lower concentrations were prepared by dilution of appropriate smaller portions of the stock solution. Approximately 1.5 mL aliquots of each solution of known concentration were sprayed evenly onto each of the test plant pots using a Devilbiss atomizer driven by compressed air pressure of 2 to 4 psi (140 to 280 kiloPascals) to obtain thorough coverage of each plant. Control plants were sprayed in the same manner with the aqueous mixture. In this test an application rate of 1 ppm results in the application of approximately 1 g/ha. The treated plants and control plants were placed in a greenhouse as described above and watered by sub-irrigation to prevent wash-off of the test compounds. After 2 weeks the condition of the test plants as compared with that of the untreated plants was determined visually and scored on a scale of 0 to 100 percent where 0 corresponds to no injury and 100 corresponds to complete kill.

In assay [2] the test system is wild buckwheat (Polygonum convolvulus). Put plainly: Postemergence herbicidal activity. The conditions noted are these: scored after 2 weeks, 0 no injury, 100 complete kill. The procedure:
as §1

In assay [3] the test system is cocklebur (Xanthium strumarium). Put plainly: Postemergence herbicidal activity. To be noted: scored after 2 weeks, 0 no injury, 100 complete kill. Here is the method:
as §1

In assay [4] the test system is wild oats (Avena fatua). Put plainly: Postemergence herbicidal activity. To be noted: scored after 2 weeks, 0 no injury, 100 complete kill. The procedure:
as §1

In a further assay the test system is viola (Viola tricolor). Put plainly: Postemergence herbicidal activity. To be noted: scored after 2 weeks, 0 no injury, 100 complete kill. The procedure: as §1
The test system of assay [5] is velvetleaf (Abutilion theophrasti). Nature of the assay: Postemergence herbicidal activity. The conditions noted are these: scored after 2 weeks, 0 no injury, 100 complete kill. Here is the method:
as §1

Assay [6] relates to morningglory (Ipomoea hederacea). Put plainly: Postemergence herbicidal activity. To be noted: scored after 2 weeks, 0 no injury, 100 complete kill. The procedure:
as §1

In assay [7] the test system is blackgrass (Alopecurus myosuroides). Nature of the assay: Postemergence herbicidal activity. To be noted: scored after 2 weeks, 0 no injury, 100 complete kill. The procedure: as §1
In assay [8] the test system is chickweed (Stellaria media). Put plainly: Postemergence herbicidal activity. To be noted: scored after 2 weeks, 0 no injury, 100 complete kill. The procedure:
as §1

The test system of assay [9] is pigweed (Amaranthus retroflexus). Put plainly: Postemergence herbicidal activity. To be noted: scored after 2 weeks, 0 no injury, 100 complete kill. Here is the method:
as §1

In assay [10] the test system is Rox orange sorghum (Sorghum bicolor). Nature of the assay: Postemergence herbicidal activity. To be noted: scored after 2 weeks, 0 no injury, 100 complete kill. The procedure: as §1
The test system of assay [11] is wild poinsettia (Euphorbia heterophylla). Nature of the assay: Preemergence herbicidal activity. The conditions noted are these: 17.5 g/Ha; scored after 3 weeks; 0 no injury, 100 complete kill or no germination. Here is the method: (§2) The soil matrix was contained in plastic pots with a surface area of 161 square centimeters. When required to ensure good germination and healthy plants, a fungicide treatment and/or other chemical or physical treatment was applied. A weighed amount, determined by the highest rate to be tested, of each test compound was placed in a 20 mL glass vial and was dissolved in 8 mL of a 97:3 v/v (volume/volume) mixture of acetone and dimethyl sulfoxide to obtain concentrated stock solutions. […] The stock solutions obtained were diluted with a 99.9:0.1 mixture of water and Tween® 155 surfactant (ethoxylated sorbitan fatty acid ester) to obtain application solutions of known concentration. The solutions containing the highest concentration to be tested were prepared by diluting 4 mL aliquots of the stock solution with 8.5 mL of the mixture and lower concentrations were prepared by dilution of appropriate smaller portions of the stock solution. A 2.5 mL aliquot of each solution of known concentration was sprayed evenly onto the soil of each seeded pot using a Cornwall 5.0 mL glass syringe fitted with a TeeJet TN-3 hollow cone nozzle to obtain thorough coverage of the soil in each pot. Control pots were sprayed in the same manner with the aqueous mixture. A highest application rate of 4.48 kg/ha is achieved when 50 mg of test compound is employed. The treated pots and control pots were placed in a greenhouse with an approximately 15 hr photoperiod which was maintained at about 23-29° C. during the day and 22-28° C. during the night. Nutrients and water were added on a regular basis and supplemental lighting was provided with overhead metal halide 1000 Watt lamps as necessary. The water was added by top-irrigation. After 3 weeks the condition of the test plants that germinated and grew as compared with that of the untreated plants that germinated and grew was determined visually and scored on a scale of 0 to 100 percent where 0 corresponds to no injury and 100 corresponds to complete kill or no germination.

The subject of assay [12] is giant foxtail (Setaria faberi). Nature of the assay: Preemergence herbicidal activity. To be noted: 17.5 g/Ha; scored after 3 weeks; 0 no injury, 100 complete kill or no germination. The procedure:
as §2

The test system of assay [13] is crabgrass (Digitaria sanguinalis). Put plainly: Preemergence herbicidal activity. The conditions noted are these: 17.5 g/Ha; scored after 3 weeks; 0 no injury, 100 complete kill or no germination. The procedure: as §2
Assay [14] has as its system cocklebur (Xanthium strumarium). Nature of the assay: Preemergence herbicidal activity. The conditions noted are these: 17.5 g/Ha; scored after 3 weeks; 0 no injury, 100 complete kill or no germination. Here is the method: as §2
For assay [15], the system named is wild oats (Avena fatua). Nature of the assay: Preemergence herbicidal activity. The conditions noted are these: 17.5 g/Ha; scored after 3 weeks; 0 no injury, 100 complete kill or no germination. Here is the method: as §2
For assay [16], the system named is barnyardgrass (Echinochloa crus-galli). Put plainly: Preemergence herbicidal activity. The conditions noted are these: 17.5 g/Ha; scored after 3 weeks; 0 no injury, 100 complete kill or no germination. Here is the method: as §2
Assay [17] deals with lambsquarters (Chenopodium album). Nature of the assay: Preemergence herbicidal activity. The conditions noted are these: 17.5 g/Ha; scored after 3 weeks; 0 no injury, 100 complete kill or no germination. The procedure:
as §2

For assay [18], the system named is velvetleaf (Abutilion theophrasti). Put plainly: Preemergence herbicidal activity. To be noted: 17.5 g/Ha; scored after 3 weeks; 0 no injury, 100 complete kill or no germination. Here is the method:
as §2

In assay [19] the test system is morningglory (Ipomoea hederacea). Nature of the assay: Preemergence herbicidal activity. The conditions noted are these: 17.5 g/Ha; scored after 3 weeks; 0 no injury, 100 complete kill or no germination. The procedure:
as §2

The subject of assay [20] is blackgrass (Alopecurus myosuroides). Put plainly: Preemergence herbicidal activity. The conditions noted are these: 17.5 g/Ha; scored after 3 weeks; 0 no injury, 100 complete kill or no germination. The procedure:
as §2

The test system of assay [21] is pigweed (Amaranthus retroflexus). Put plainly: Preemergence herbicidal activity. To be noted: 17.5 g/Ha; scored after 3 weeks; 0 no injury, 100 complete kill or no germination. Here is the method: as §2
Assay [22] has as its system Rox orange sorghum (Sorghum bicolor). Put plainly: Preemergence herbicidal activity. The conditions noted are these: 17.5 g/Ha; scored after 3 weeks; 0 no injury, 100 complete kill or no germination. Here is the method: as §2
Assay [23] relates to lambsquarters (Chenopodium album). Put plainly: Postemergence herbicidal activity. To be noted: 3.9 ppm; scored after 2 weeks; 0 no injury, 100 complete kill. Here is the method: as §1

The structures appear in SMILES notation.

Regarding `COc1cc(OC)n2nc(NS(=O)(=O)c3c(OCC(F)F)cccc3C(F)(F)F)nc2n1` [Compound 8], the “Postemergence herbicidal activity SETFA” value in assay [1] (31.3 ppm) is reported as 100%. Besides, the “Postemergence herbicidal activity POLCO” value in assay [2] (31.3 ppm) turned out to be 98%. The “Postemergence herbicidal activity XANST” value in [3] (31.3 ppm) came to 100%. The “Postemergence herbicidal activity AVEFA” value in the assay with wild oats (Avena fatua) [4] (31.3 ppm) turned out to be 60%. The “Postemergence herbicidal activity VIOTR” value in the assay on viola (Viola tricolor) (31.3 ppm) turned out to be 85%. In addition, the “Postemergence herbicidal activity ABUTH” value in assay [5] (31.3 ppm) was determined as 100%. Further, the “Postemergence herbicidal activity IPOHE” value in assay [6] (31.3 ppm) is 95%. Besides, in assay [7] (31.3 ppm), the “Postemergence herbicidal activity ALOMY” value turned out to be 80%. Also, the “Postemergence herbicidal activity STEME” value in assay [8] (31.3 ppm) amounted to 98%. In addition, the “Postemergence herbicidal activity AMARE” value in assay [9] (31.3 ppm) worked out at 100%. Moreover, the “Postemergence herbicidal activity SORBI” value in assay [10] (31.3 ppm) turned out to be 80%. In addition, the “Preemergence herbicidal activity EPHHL” value in assay [11] turned out to be 90%. In addition, the “Preemergence herbicidal activity SETFA” value in [12] worked out at 100%. For the same compound, the “Preemergence herbicidal activity DIGSA” value in assay [13] stood at 85%. Besides, in assay [14], the “Preemergence herbicidal activity XANST” value worked out at 80%. Besides, the “Preemergence herbicidal activity AVEFA” value in the assay with wild oats (Avena fatua) [15] is 30%. The “Preemergence herbicidal activity ECHCG” value in assay [16] is listed as 100%. Further, in [17], the “Preemergence herbicidal activity CHEAL” value amounted to 100%. Also, the “Preemergence herbicidal activity ABUTH” value in [18] came to 85%. Also, the “Preemergence herbicidal activity IPOHE” value in assay [19] stood at 90%. Further, the “Preemergence herbicidal activity ALOMY” value in assay [20] came out at 95%. Also, the “Preemergence herbicidal activity AMARE” value in assay [21] came out at 100%. The “Preemergence herbicidal activity SORBI” value in assay [22] was 95%.

On to `COc1cc(OC)n2nc(NS(=O)(=O)c3c(OC)cccc3C(F)(F)F)nc2n1` [Compound 4], for which the “Postemergence herbicidal activity SETFA” value in assay [1] (3.9 ppm) stood at 100%. Besides, the “Postemergence herbicidal activity POLCO” value in [2] (3.9 ppm) came out at 95%. The “Postemergence herbicidal activity XANST” value in assay [3] (3.9 ppm) is listed as 70%. Besides, the “Postemergence herbicidal activity AVEFA” value in the assay with wild oats (Avena fatua) [4] (3.9 ppm) is listed as 98%. Further, the “Postemergence herbicidal activity VIOTR” value with viola (Viola tricolor) (3.9 ppm) is given as 90%. Moreover, the “Postemergence herbicidal activity CHEAL” value in assay [23] is 95%. Further, in [5] (3.9 ppm), the “Postemergence herbicidal activity ABUTH” value is recorded as 95%. Further, the “Postemergence herbicidal activity IPOHE” value in assay [6] (3.9 ppm) was found to be 90%. For the same compound, the “Postemergence herbicidal activity ALOMY” value in assay [7] (3.9 ppm) was found to be 95%. In addition, the “Postemergence herbicidal activity STEME” value in assay [8] (3.9 ppm) is reported as 99%. In addition, the “Postemergence herbicidal activity AMARE” value in assay [9] (3.9 ppm) was 100%. Besides, the “Postemergence herbicidal activity SORBI” value in [10] (3.9 ppm) was 95%. Besides, the “Preemergence herbicidal activity EPHHL” value in assay [11] was found to be 98%. For the same compound, the “Preemergence herbicidal activity SETFA” value in assay [12] is recorded as 99%. In addition, the “Preemergence herbicidal activity DIGSA” value in assay [13] is 100%. Moreover, the “Preemergence herbicidal activity XANST” value in assay [14] was 85%. Moreover, the “Preemergence herbicidal activity AVEFA” value with wild oats (Avena fatua) [15] came to 100%. In addition, the “Preemergence herbicidal activity ECHCG” value in [16] was found to be 100%. The “Preemergence herbicidal activity ABUTH” value in assay [18] was 98%. Moreover, the “Preemergence herbicidal activity IPOHE” value in assay [19] is 98%. Also, the “Preemergence herbicidal activity ALOMY” value in [20] turned out to be 100%. The “Preemergence herbicidal activity AMARE” value in assay [21] is 99%. Besides, the “Preemergence herbicidal activity SORBI” value in [22] was determined as 100%.
